# From US20260193293A1, “PEPTIDES CAPABLE OF INHIBITING PROTEIN-PROTEIN INTERACTIONS AT GABAB1A SUBUNIT AND USES THEREOF” (UNIVERSITY OF COPENHAGEN, priority 2022, published 2026)
# Read-outs that look alike come from different tables or passages of the source. Non-standard residues stand in square brackets, D forms with d. Residues, ends and D or L forms follow the SMILES beside them. NMeW = CN[C@@H](Cc1c[nH]c2ccccc12)C(=O)O; NMeA = CN[C@@H](C)C(=O)O; Sar = CNCC(=O)O
# Target: Sushi domains (SD1/2) protein
# Experiment: Fluorescence polarization (FP) competition assay with AJAP-1probe, calculated Ki
# Type: binding
# How it was run: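 Ki values were derived from IC50s (sigmoidal fits, ≥ triplicate), with probe Kd obtained by saturation titration of SD1/2. Peptides displaced a 25 nM TAMRA-labelled probe; polarization read at 530/580 nm in 1% BSA-containing PBS, pH 7.4, room temperature.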
# [1] = Table 8, Ala-, D-amino acids and N-methylation scans of AJAP-1WT, read-out: Ki (nM) mean ± SEM
# [2] = Table 10, deep mutational scanning validation variants of APPWT, read-out: Ki (nM) mean ± SEM
# [3] = Table 11, deep mutational scanning validation variants of AJAP-1WT, read-out: Ki (nM) mean ± SEM
smiles,measurement,setting,value
CC[C@H](C)[C@H](NC(=O)[C@H](C)NC(=O)[C@H](Cc1c[nH]c2ccccc12)NC(=O)[C@@H]1CCCN1C(C)=O)C(=O)N[C@H](C(=O)N[C@@H](Cc1c[nH]c2ccccc12)C(=O)NCC(=O)N1CCC[C@H]1C(=O)N[C@H](C(=O)N[C@H](C(=O)N[C@@H](CO)C(=O)N[C@@H](CCCNC(=N)N)C(=O)N[C@@H](CCC(=O)O)C(=O)N[C@@H](CC(=O)O)C(=O)NCC(=O)NCC(N)=O)C(C)C)[C@@H](C)O)C(C)C (Ac-PWAIVWGPTVSREDGG-NH2),Ki,"Table 6, elongation and truncation scan of PIANP binding epitope, read-out: Ki (nM) mean ± SEM",561 ± 21 nM
CC[C@H](C)[C@H](NC(=O)[C@H](Cc1ccccc1)NC(=O)[C@H](CCC(=O)O)NC(=O)[C@@H](NC(=O)[C@H](CCC(=O)O)NC(C)=O)[C@@H](C)O)C(=O)N[C@@H](C)C(=O)N[C@@H](Cc1c[nH]c2ccccc12)C(=O)NCC(=O)N1CCC[C@H]1C(=O)N[C@H](C(=O)N(C)CC(=O)N[C@@H](CC(=O)O)C(=O)N[C@@H](CCC(=O)O)C(=O)N[C@@H](CC(=O)O)C(N)=O)[C@@H](C)O (Ac-ETEFIAWGPT[Sar]DED-NH2),Ki,[1],132 ± 5 nM
CC[C@H](C)[C@H](NC(=O)[C@H](Cc1ccccc1)NC(=O)[C@H](CCC(=O)O)NC(=O)[C@H](C)NC(=O)[C@H](CCC(=O)O)NC(C)=O)C(=O)N[C@@H](C)C(=O)N[C@@H](Cc1c[nH]c2ccccc12)C(=O)NCC(=O)N1CCC[C@H]1C(=O)N[C@H](C(=O)NCC(=O)N[C@@H](CC(=O)O)C(=O)N[C@@H](CCC(=O)O)C(=O)N[C@@H](CC(=O)O)C(N)=O)[C@@H](C)O [EAEFIAWGPTGDED] (Ac-EAEFIAWGPTGDED-NH2),Ki,[1],34 ± 3 nM
CC[C@H](C)[C@H](NC(C)=O)C(=O)N[C@@H](C)C(=O)N[C@@H](Cc1c[nH]c2ccccc12)C(=O)NCC(=O)N1CCC[C@H]1C(=O)N[C@H](C(=O)NCC(=O)N[C@@H](CC(=O)O)C(=O)N[C@@H](CCC(=O)O)C(=O)N[C@@H](CC(=O)O)C(N)=O)[C@@H](C)O [IAWGPTGDED] (Ac-IAWGPTGDED-NH2),Ki,"Table 5, elongation and truncation scan of AJAP-1 binding epitope, read-out: Ki (nM) mean ± SEM",38000 ± 430 nM
CC[C@H](C)[C@H](NC(=O)[C@H](C)NC(=O)[C@H](Cc1c[nH]c2ccccc12)NC(=O)[C@@H]1CCCN1C(C)=O)C(=O)N[C@@H](C)C(=O)N[C@@H](Cc1c[nH]c2ccccc12)C(=O)NCC(=O)N1CCC[C@H]1C(=O)N[C@H](C(=O)N[C@H](C(=O)N[C@@H](CO)C(=O)N[C@@H](CCCNC(=N)N)C(=O)N[C@@H](CCC(=O)O)C(=O)N[C@@H](CC(=O)O)C(N)=O)C(C)C)[C@@H](C)O [PWAIAWGPTVSRED],Ki,"Table 9, Ala-, D-amino acids and N-methylation scans of PIANPWT, read-out: Ki (nM) mean ± SEM",1462 ± 14 nM
CC(=O)N[C@@H](CCC(=O)O)C(=O)N[C@@H](CC(=O)O)C(=O)N[C@@H](CC(=O)O)C(=O)N[C@@H](CO)C(=O)N[C@@H](CC(=O)O)C(=O)N[C@H](C(=O)N[C@@H](Cc1c[nH]c2ccccc12)C(=O)N(C)[C@@H](Cc1c[nH]c2ccccc12)C(=O)NCC(=O)NCC(=O)N[C@@H](C)C(=O)N[C@@H](CC(=O)O)C(=O)N[C@H](C(=O)N[C@@H](CC(=O)O)C(N)=O)[C@@H](C)O)C(C)C [EDDSDVW(N-Me-W)GGADTD] (Ac-EDDSDVW[NMeW]GGADTD-NH2),Ki,"Table 7, Ala-, D-amino acids and N-methylation scans of APPWT, read-out: Ki (nM) mean ± SEM",1380 ± 16 nM
CC[C@H](C)[C@H](NC(=O)[C@H](Cc1ccccc1)NC(=O)[C@H](CCC(=O)O)NC(=O)[C@@H](NC(=O)[C@H](CCC(=O)O)NC(C)=O)[C@@H](C)O)C(=O)N(C)[C@@H](C)C(=O)N[C@@H](Cc1c[nH]c2ccccc12)C(=O)NCC(=O)N1CCC[C@H]1C(=O)N[C@H](C(=O)NCC(=O)N[C@@H](CC(=O)O)C(=O)N[C@@H](CCC(=O)O)C(=O)N[C@@H](CC(=O)O)C(N)=O)[C@@H](C)O [ETEFI(N-Me-A)WGPTGDED] (Ac-ETEFI[NMeA]WGPTGDED-NH2),Ki,"Table 8, in μM, read-out: Ki (nM) mean ± SEM",> 6250 nM
CCOc1ccc(C[C@H](NC(=O)[C@H](CC(=O)O)NC(=O)[C@H](CC(=O)O)NC(=O)[C@H](CC(=O)O)NC(=O)[C@H](CCC(=O)O)NC(C)=O)C(=O)N[C@H](C(=O)N[C@@H](CC(=O)O)C(=O)N[C@@H](Cc2c[nH]c3ccccc23)C(=O)NCC(=O)N2CCC[C@H]2C(=O)N[C@H](C(=O)N[C@@H](CO)C(=O)N[C@@H](CC(=O)O)C(=O)N[C@@H](CC(=O)O)C(=O)N[C@@H](CC(=O)O)C(N)=O)[C@@H](C)O)[C@@H](C)CC)cc1 [Peptide 34] (Ac-EDDDY(Et)IDWGPTSDDD-NH2),Ki,"Table 1, affinity maturation, mean ± SEM, n ≥ 3, read-out: Ki",6.5 ± 0.4 nM
same,Ki,"Table 16, ncAAs incorporated peptides, read-out: Ki (nM) mean ± SEM",6.5 ± 0.4 nM
CC(=O)N[C@@H](CCC(=O)O)C(=O)N[C@@H](CCC(=O)O)C(=O)N[C@@H](CC(=O)O)C(=O)N[C@@H](CC(=O)O)C(=O)N[C@@H](CO)C(=O)N[C@@H](CC(=O)O)C(=O)N[C@H](C(=O)N[C@@H](Cc1c[nH]c2ccccc12)C(=O)N[C@@H](Cc1c[nH]c2ccccc12)C(=O)NCC(N)=O)C(C)C (Ac-EEDDSDVWWG-NH2),Ki,"Table 4, truncation and elongation scans of APP epitope, read-out: Ki (nM) mean ± SEM",12800 ± 415 nM
CC(=O)N[C@@H](CCC(=O)O)C(=O)N[C@@H](CC(=O)O)C(=O)N[C@@H](CC(=O)O)C(=O)N[C@@H](CO)C(=O)N[C@@H](CC(=O)O)C(=O)N[C@H](C(=O)N[C@@H](Cc1c[nH]c2ccccc12)C(=O)N[C@@H](Cc1c[nH]c2ccccc12)C(=O)N[C@@H](CC(=O)O)C(=O)NCC(=O)N[C@@H](C)C(=O)N[C@@H](CC(=O)O)C(=O)N[C@H](C(=O)N[C@@H](CC(=O)O)C(N)=O)[C@@H](C)O)C(C)C (Ac-EDDSDVWWDGADTD-NH2),Ki,[2],429 ± 7 nM
CC(=O)N[C@@H](CCC(=O)O)C(=O)N[C@@H](CC(=O)O)C(=O)N[C@@H](CC(=O)O)C(=O)N[C@@H](CO)C(=O)N[C@@H](CC(=O)O)C(=O)N[C@H](C(=O)N[C@@H](Cc1c[nH]c2ccccc12)C(=O)N[C@@H](Cc1c[nH]c2ccccc12)C(=O)NCC(=O)NCC(=O)N[C@@H](C)C(=O)N[C@@H](CC(=O)O)C(=O)N[C@@H](Cc1c[nH]cn1)C(=O)N[C@@H](CC(=O)O)C(N)=O)C(C)C (Ac-EDDSDVWWGGADHD-NH2),Ki,[2],739 ± 9 nM
CC[C@H](C)[C@H](NC(=O)[C@H](Cc1ccccc1)NC(=O)[C@H](CCC(=O)O)NC(=O)[C@@H](NC(=O)[C@H](CCC(=O)O)NC(C)=O)[C@@H](C)O)C(=O)N[C@@H](C)C(=O)N[C@@H](Cc1c[nH]c2ccccc12)C(=O)NCC(=O)N1CCC[C@H]1C(=O)N[C@H](C(=O)NCC(=O)N[C@@H](CC(=O)O)C(=O)N[C@@H](Cc1c[nH]cn1)C(=O)N[C@@H](CC(=O)O)C(N)=O)[C@@H](C)O,Ki,[3],39 ± 2 nM
CC[C@H](C)[C@H](NC(=O)[C@H](Cc1ccccc1)NC(=O)[C@H](CCC(=O)O)NC(=O)[C@@H](NC(=O)[C@H](CCC(=O)O)NC(C)=O)[C@@H](C)O)C(=O)N[C@@H](C)C(=O)N[C@@H](Cc1c[nH]c2ccccc12)C(=O)NCC(=O)N1CCC[C@H]1C(=O)N[C@H](C(=O)NCC(=O)N[C@@H](CC(=O)O)C(=O)N[C@@H](CCC(=O)O)C(=O)N1CCC[C@H]1C(N)=O)[C@@H](C)O (Ac-ETEFIAWGPTGDEP-NH2),Ki,[3],41 ± 2 nM
CC[C@H](C)[C@H](NC(=O)[C@H](Cc1ccccc1)NC(=O)[C@H](CCC(=O)O)NC(=O)[C@@H](NC(=O)[C@H](CCC(=O)O)NC(C)=O)[C@@H](C)O)C(=O)N[C@@H](C)C(=O)N[C@@H](Cc1c[nH]c2ccccc12)C(=O)NCC(=O)N1CCC[C@H]1C(=O)N[C@@H](C)C(=O)NCC(=O)N[C@@H](CC(=O)O)C(=O)N[C@@H](CCC(=O)O)C(=O)N[C@@H](CC(=O)O)C(N)=O [ETEFIAWGPAGDED] (Ac-ETEFIAWGPAGDED-NH2),Ki,[1],89 ± 2 nM
CC[C@H](C)[C@H](NC(=O)[C@H](Cc1ccccc1)NC(=O)[C@H](CCC(=O)O)NC(=O)[C@@H](NC(=O)[C@H](CCC(=O)O)NC(C)=O)[C@@H](C)O)C(=O)N[C@@H](C)C(=O)N[C@@H](Cc1c[nH]c2ccccc12)C(=O)NCC(=O)N1CCC[C@H]1C(=O)N[C@H](C(=O)NCC(=O)N[C@@H](C)C(=O)N[C@@H](CCC(=O)O)C(=O)N[C@@H](CC(=O)O)C(N)=O)[C@@H](C)O [ETEFIAWGPTGAED] (Ac-ETEFIAWGPTGAED-NH2),Ki,[1],50 ± 1 nM
